Measurements as given in patent US20250059206A1, “FUSED RING COMPOUND ACTING AS SHP2 INHIBITOR” (priority 2021, published 2025).

Each compound was assayed on MIA PaCa-2 cells (assay: In vitro anti-proliferative activity against MIA PaCa-2 cells). Settings: Homo sapiens, viability 72 h after dosing by intracellular ATP content, versus DMSO group.
Assay type: cell-based
Protocol: Example 50. In Vtro Anti-Proliferative Activity of Compounds of the Present Invention Against MIA PaCa-2 Cells
MIA PaCa-2 cells were seeded on a 96-well plate at 3000 cells/well. After overnight adherence culture, DMSO or the compounds serially diluted 1:5 from […] were added. The viability was assessed 72 h after dosing by measuring the intracellular ATP content. The inhibition percentages of viable cells by the compounds were calculated by comparing with the DMSO group, and the IC50 values were calculated.

| IC50 [nM] | Compound |
| --- | --- |
| 35.1 | N[C@@H]1c2ccccc2CC12CCN(c1cnc3c(N4CCN5CCCc6cccc4c65)n[nH]c3n1)CC2 [Compound 1] |
| 5.1 | N[C@@H]1c2ccccc2CC12CCN(c1cnc3c(N4CCN5C(=O)CCc6cccc4c65)n[nH]c3n1)CC2 [Compound 3] |
| 6.5 | N[C@@H]1c2ccccc2CC12CCN(c1cnc3c(N4CCn5c(=O)ccc6cccc4c65)n[nH]c3n1)CC2 [Compound 6] |
| 8.9 | N[C@@H]1c2ccccc2CC12CCN(c1cnc3c(N4CCN5C(=O)CCc6cc(F)cc4c65)n[nH]c3n1)CC2 [Compound 9] |
| 12.1 | N[C@@H]1c2ccccc2CC12CCN(c1cnc3c(N4CCN5C(=O)CCc6c(F)ccc4c65)n[nH]c3n1)CC2 [Compound 10] |
| 5.8 | N[C@@H]1c2cccnc2CC12CCN(c1cnc3c(N4CCN5C(=O)CCc6cccc4c65)n[nH]c3n1)CC2 [Compound 12] |
| 7.2 | N[C@@H]1c2cccnc2CC12CCN(c1cnc3c(N4CCn5c(=O)ccc6cccc4c65)n[nH]c3n1)CC2 [Compound 14] |
| 9.3 | N[C@@H]1c2cccnc2CC12CCN(c1cnc3c(N4CCN5C(=O)CCc6cc(F)cc4c65)n[nH]c3n1)CC2 [Compound 16] |
| 10.8 | NC1c2cccnc2CC12CCN(c1cnc3c(N4CCN5C(=O)CCc6c(F)ccc4c65)n[nH]c3n1)CC2 (stereo not drawn) [Compound 17] |
| 11.3 | N[C@@H]1c2cc(O)ccc2CC12CCN(c1cnc3c(N4CCN5C(=O)CCc6cccc4c65)n[nH]c3n1)CC2 [Compound 21] |
| 9.6 | COc1cccc2c1CC1(CCN(c3cnc4c(N5CCN6C(=O)CCc7cccc5c76)n[nH]c4n3)CC1)[C@@H]2N [Compound 24] |
| 8.1 | N[C@@H]1c2ccc(F)nc2CC12CCN(c1cnc3c(N4CCN5C(=O)CCc6cccc4c65)n[nH]c3n1)CC2 [Compound 26] |
| 15.9 | N[C@@H]1c2ccc(Cl)nc2CC12CCN(c1cnc3c(N4CCN5C(=O)CCc6cccc4c65)n[nH]c3n1)CC2 [Compound 27] |
| 17.3 | N[C@@H]1c2cc(O)ccc2CC12CCN(c1cnc3c(N4CCN5C(=O)CCc6ccc(F)c4c65)n[nH]c3n1)CC2 [Compound 35] |
| 12.5 | Cc1ccc2c(c1)[C@@H](N)C1(CCN(c3cnc4c(N5CCN6C(=O)CCc7ccc(F)c5c76)n[nH]c4n3)CC1)C2 [Compound 36] |
| 13.9 | N[C@@H]1c2cc(F)ccc2CC12CCN(c1cnc3c(N4CCN5C(=O)CCc6ccc(F)c4c65)n[nH]c3n1)CC2 [Compound 37] |
| 15.6 | COc1cccc2c1CC1(CCN(c3cnc4c(N5CCN6C(=O)CCc7ccc(F)c5c76)n[nH]c4n3)CC1)[C@@H]2N [Compound 38] |
| 18.1 | N[C@@H]1c2cc(O)ccc2CC12CCN(c1cnc3c(N4CCN5C(=O)CCc6cc(F)cc4c65)n[nH]c3n1)CC2 [Compound 40] |
| 13.5 | Cc1ccc2c(c1)[C@@H](N)C1(CCN(c3cnc4c(N5CCN6C(=O)CCc7cc(F)cc5c76)n[nH]c4n3)CC1)C2 [Compound 41] |
| 10.1 | N[C@@H]1c2cc(F)ccc2CC12CCN(c1cnc3c(N4CCN5C(=O)CCc6cc(F)cc4c65)n[nH]c3n1)CC2 [Compound 42] |
| 11.5 | N[C@@H]1c2cc(O)ccc2CC12CCN(c1cnc3c(N4CCN5C(=O)CCc6c(F)ccc4c65)n[nH]c3n1)CC2 [Compound 45] |
| 14 | Cc1ccc2c(c1)[C@@H](N)C1(CCN(c3cnc4c(N5CCN6C(=O)CCc7c(F)ccc5c76)n[nH]c4n3)CC1)C2 [Compound 46] |
| 9.5 | N[C@@H]1c2cc(F)ccc2CC12CCN(c1cnc3c(N4CCN5C(=O)CCc6c(F)ccc4c65)n[nH]c3n1)CC2 [Compound 47] |
| 19.2 | COc1cccc2c1CC1(CCN(c3cnc4c(N5CCN6C(=O)CCc7c(F)ccc5c76)n[nH]c4n3)CC1)[C@@H]2N [Compound 48] |
